Test results from PubChem BioAssay (NCI).
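These data come from cells grown in 96-well plates and exposed to compound for 48 hours at five concentrations. Here, GI50 denotes the concentration required for 50% inhibition of growth. At the TGI there is no net growth.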

How the values were obtained:
Assay in all cases: NCI anticancer screen, dose series, 48 h
[1] = test system: EKVX NSCLC
[2] = test system: IGROV1 ovarian
[3] = test system: M14 melanoma
[4] = test system: MCF7 breast
[5] = test system: MDA-MB-435
[6] = test system: NCI-H23 lung
[7] = test system: NCI-H522 lung
[8] = test system: OVCAR-3 ovarian
[9] = test system: SK-MEL-5 melanoma
[10] = test system: SW-620 colon

SMILES	GI50 [1] [µM]	TGI [1] [µM]	GI50 [2] [µM]	TGI [2] [µM]	GI50 [3] [µM]	TGI [3] [µM]	GI50 [4] [µM]	TGI [4] [µM]	GI50 [5] [µM]	TGI [5] [µM]	GI50 [6] [µM]	TGI [6] [µM]	GI50 [7] [µM]	TGI [7] [µM]	GI50 [8] [µM]	TGI [8] [µM]	GI50 [9] [µM]	TGI [9] [µM]	GI50 [10] [µM]	TGI [10] [µM]
CCOc1ccc2nc(SCc3nc4n(n3)S(=O)(=O)c3ccccc3N4C)sc2c1	> 100	> 100	> 100	> 100	> 100	> 100	> 100	> 100	> 100	> 100	57.7	> 100	86.4	> 100	> 100	> 100	> 100	> 100	> 100	> 100
Cc1ccc(C)c2c1C(O)(C#Cc1ccccc1)c1ccccc1C2(O)C#Cc1ccccc1 (stereo not given)	3.36	> 29	3.05	51.3	3.6	> 82.5	2.47	> 100	2.42	16.2	3.23	> 29.5	4.55	> 100	3.12	> 34.7	1.63	4.99	3.03	> 100
COc1cc(NC(N)=NCCC(C)(C)Oc2ccc(C(F)(F)F)cc2)ncc1C#N	1.45	2.85	1.8	3.48	1.62	3.11	1.61	3.18	1.73	3.17	1.43	2.81	1.47	2.9	1.68	3.17	1.58	2.93	1.69	3.46
O=C1c2ccccc2-c2c1c1c(=O)[nH]c3ccccc3c1n2Cc1ccccc1	30.4	99.5	29.9	97.3	> 100	> 100	35.8	> 100	> 100	> 100	20.5	46.8	42.7	> 100	35	> 100	> 100	> 100	> 100	> 100
COc1cc(C#Cc2ccc(=O)oc2C#Cc2ccccc2)cc(OC)c1OC	5.32	13.4	2.18	5.7	2.38	5.98	1.99	4.86	3.4	17.8	2.59	7.63	1.73	3.57	1.93	3.58	2.02	4.77	2.04	4.28
COc1cc(/C=C2\C(=O)Nc3cc(C)c(O)cc32)cc(OC)c1OC	4.08	39	5.35	21.3	4.45	17.3	2.44	26.4	1.52	3.7	3.61	23.7	2.59	12.1	3.62	12.8	2.52	9.17	4.08	15.9
